Reference: patent publication EP2832371B1, “APPLICATION OF GASTRODIN AS SOLUBILIZER AND METHOD FOR PREPARING INJECTION OR POWDER FOR INJECTION” (KPC Pharmaceuticals, Inc., priority 2012, dated 2013)

Key:
[1] = Dissolution of the compound together with gastrodin in the preparation tank; type: physicochemical; settings: amounts per formula of the example; with gastrodin in water for injection kept at 80 °C, vacuum, nitrogen gas
Protocol: heating water for injection to 80-98 °C, followed by stirring under vacuum conditions at 30-80 °C, and then adding the reactant under the protection of nitrogen gas or argon gas to obtain a solution of the reactant.
60% of the total amount of water for injection for preparation was added into a preparation tank, heated to 95 °C with slight boiling, and kept at 80 °C. The vacuum was initiated while stirring for 10 minutes, followed by bringing breviscapine along with gastrodin and sodium carbonate weighed according to the amounts in the formula by nitrogen gas into the preparation tank. […] Next, it is sterile-filtered, sterile-filled and freeze-dried by a conventional process to obtain the freeze-dried powder for injection.

[2] = Maximum tolerance dose of gastrodin calculated from intramuscular and intravenous injection in animals; type: in vivo, human; settings: calculated at 60 kg from maximum tolerance dose of intramuscular and intravenous injection for animals
Protocol: Gastrodin is a white crystalline powder, odorless, bitter taste; melting point: 153 °C~156 °C; easily soluble in water or methanol and soluble in ethanol. Gastrodin has sedative, hypnotic and analgesic effects, and has low toxicity. It can be calculated from the maximum tolerance dose of intramuscular injection and intravenous injection for animals that the maximum tolerance dose for human is 33.249 g of gastrodin (calculated at 60 kg).

| Compound | time in which the compound dissolved in the preparation tank [1] | maximum tolerance dose for human [2] [g] |
| --- | --- | --- |
| Breviscapine | about 5 minutes |  |
| O=C1CC(c2ccccc2)Oc2cc(O)c(O)c(O)c21 (centres unmarked) [Dihydrobaicalein] | about 5 minutes |  |
| OC[C@H]1O[C@@H](Oc2cc(/C=C/c3cc(O)cc(O)c3)ccc2O)[C@H](O)[C@@H](O)[C@@H]1O | about 5 minutes |  |
| O=c1c(-c2ccc(O)cc2)coc2c([C@@H]3O[C@H](CO)[C@@H](O)[C@H](O)[C@H]3O)c(O)ccc12 [Puerarin] | about 5 minutes |  |
| COc1ccc(-c2oc3cc(O)cc(O)c3c(=O)c2O)cc1 [Kaempferide] | about 5 minutes |  |
| Oc1ccc2c(c1)OC[C@H]1c3cc4c(cc3O[C@@H]21)OCO4 [Maackiain] | about 5 minutes |  |
| O=c1c(-c2ccc(O)cc2)coc2cc(O)ccc12 [Daidzein] | about 5 minutes |  |
| O=c1cc(-c2ccccc2)oc2cc(O)c(O)c(O)c12 [Baicalein] | about 5 minutes |  |
| O=c1c(O)c(-c2ccc(O)c(O)c2)oc2cc(O)cc(O)c12 [Quercetin] | about 5 minutes |  |
| O=C1C[C@@H](c2ccc(O)cc2)Oc2cc(O)cc(O)c21 [Naringenin] | about 5 minutes |  |
| COc1ccc(/C=C/c2cc(O)cc(O[C@@H]3O[C@H](CO)[C@@H](O)[C@H](O)[C@H]3O)c2)cc1 [Deoxyrhapontin] | about 5 minutes |  |
| OCc1ccc(O[C@@H]2O[C@H](CO)[C@@H](O)[C@H](O)[C@H]2O)cc1 [Gastrodin, 4-hydroxymethylphenyl-β-D-glucopyranoside hemihydrate] |  | 33.249 |
| Taxinine | about 5 minutes |  |
| O=C(O)[C@H]1O[C@@H](Oc2cc3oc(-c4ccccc4)cc(=O)c3c(O)c2O)[C@H](O)[C@@H](O)[C@@H]1O [Baicalin] | about 5 minutes |  |
| Oc1ccc(C=Cc2cc(O)cc(O)c2)cc1 [Resveratrol] | about 5 minutes |  |
| COc1c(O)cc2c(c1O)[C@@H]1O[C@H](CO)[C@@H](O)[C@H](O)[C@H]1OC2=O [Bergenin] | about 5 minutes |  |
| O=C1c2c(O)cccc2C([C@@H]2O[C@H](CO)[C@@H](O)[C@H](O)[C@H]2O)c2cc(CO)cc(O)c21 (some centres unmarked) [Barbaloin] | about 5 minutes |  |
| O=c1c(-c2ccc(O)cc2)coc2cc(O[C@@H]3O[C@H](CO)[C@@H](O)[C@H](O)[C@H]3O)ccc12 [Daidzin] | about 5 minutes |  |
| O=c1cc(-c2ccc(O)c(O)c2)oc2cc(O)c([C@@H]3O[C@H](CO)[C@@H](O)[C@H](O)[C@H]3O)c(O)c12 [Homoorientin] | about 5 minutes |  |
| COc1ccc(/C=C/c2cc(O)cc(O[C@@H]3O[C@H](CO)[C@@H](O)[C@H](O)[C@H]3O)c2)cc1O [Rhapontin] | about 5 minutes |  |
| OC[C@H]1O[C@@H](Oc2cc(O)cc(/C=C/c3ccc(O)cc3)c2)[C@H](O)[C@@H](O)[C@@H]1O [Polydatin] | about 5 minutes |  |
| CC(=O)Cc1cc(=O)c2c(C)cc(O)c([C@@H]3O[C@H](CO)[C@@H](O)[C@H](O)[C@H]3O)c2o1 [Aloesin] | about 5 minutes |  |
| COc1ccc([C@@H]2CC(=O)c3c(O)cc(O)cc3O2)cc1O [Hesperetin] | about 5 minutes |  |
